target: T1, OGA (Homo sapiens, UniProt O60502); assay: OGA cellular assay (ICC detection of O-GlcNAcylated proteins in HEK293 cells inducible for P301L mutant human Tau); format: cell-based; settings: HEK293, HEK293 cells inducible for P301L mutant human Tau, maximum = Thiamet G 200 uM
T1 construct: HEK293 cells inducible for P301L mutant human Tau (isoform 2N4R) were established at Janssen; endogenous in cells; host or cells: HEK293 cells inducible for P301L mutant human Tau (2N4R)
T1 sequence (O60502 1-916): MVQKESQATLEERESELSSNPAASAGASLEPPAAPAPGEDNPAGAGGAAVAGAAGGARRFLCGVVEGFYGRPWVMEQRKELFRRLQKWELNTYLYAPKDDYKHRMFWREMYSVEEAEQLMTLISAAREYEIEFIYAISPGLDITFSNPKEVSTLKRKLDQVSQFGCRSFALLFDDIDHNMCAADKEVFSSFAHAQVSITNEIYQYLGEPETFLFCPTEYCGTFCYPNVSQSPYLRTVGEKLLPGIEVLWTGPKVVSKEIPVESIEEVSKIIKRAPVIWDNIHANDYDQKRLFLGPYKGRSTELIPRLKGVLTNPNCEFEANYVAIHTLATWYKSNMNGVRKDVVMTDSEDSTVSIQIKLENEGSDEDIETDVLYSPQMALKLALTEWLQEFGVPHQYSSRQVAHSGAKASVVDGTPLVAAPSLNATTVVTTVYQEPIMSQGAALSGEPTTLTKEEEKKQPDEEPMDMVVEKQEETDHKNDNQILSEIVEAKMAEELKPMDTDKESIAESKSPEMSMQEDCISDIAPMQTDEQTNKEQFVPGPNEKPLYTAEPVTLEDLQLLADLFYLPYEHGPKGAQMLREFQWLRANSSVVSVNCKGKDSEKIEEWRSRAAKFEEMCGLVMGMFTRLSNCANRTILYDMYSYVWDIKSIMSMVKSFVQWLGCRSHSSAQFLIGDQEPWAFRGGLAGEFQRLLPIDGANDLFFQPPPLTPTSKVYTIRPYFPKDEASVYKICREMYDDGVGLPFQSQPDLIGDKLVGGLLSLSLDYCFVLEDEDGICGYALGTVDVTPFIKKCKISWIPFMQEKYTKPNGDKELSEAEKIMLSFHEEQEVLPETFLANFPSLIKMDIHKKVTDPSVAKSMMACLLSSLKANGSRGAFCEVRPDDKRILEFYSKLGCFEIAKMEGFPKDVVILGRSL
Experimental: HEK293 cells inducible for P301L mutant human Tau (isoform 2N4R) were established at Janssen. Thiamet-G was used for both plate validation (high control) and as reference compound (reference EC50 assay validation). OGA inhibition is evaluated through the immunocytochemical (ICC) detection of O-GlcNAcylated proteins by the use of a monoclonal antibody (CTD110.6; Cell Signaling, #9875) detecting 0-GlcNAcylated residues as previously described (Dorfmueller et al. 2010 Chemistry & biology, 17:1250). Inhibition of OGA will result in an increase of O-GlcNAcylated protein levels resulting in an increased signal in the experiment. Cell nuclei are stained with Hoechst to give a cell culture quality control and a rough estimate of immediate compounds toxicity, if any. ICC pictures are imaged with a Perkin Elmer Opera Phenix plate microscope and quantified with the provided software Perkin Elmer Harmony 4.1.
Cells were propagated in DMEM high Glucose (Sigma, #D5796) following standard procedures. 2 days before the cell assay cells are split, counted and seeded in Poly-D-Lysine (PDL) coated 96-wells (Greiner, #655946) plate at a cell density of 12,000 cells per cm^2 (4,000 cells per well) in 100 μl of Assay Medium (Low Glucose medium is used to reduce basal levels of GlcNAcylation) (Park et al. 2014 The Journal of biological chemistry 289:13519). At the day of compound test medium from assay plates was removed and replenished with 90 μl of fresh Assay Medium. 10 μl of compounds at a 10fold final concentration were added to the wells. Plates were centrifuged shortly before incubation in the cell incubator for 6 hours. DMSO concentration was set to 0.2%. Medium is discarded by applying vacuum. For staining of cells medium was removed and cells washed once with 100 μl D-PBS (Sigma, #D8537). From next step onwards unless other stated assay volume was always 50 μl and incubation was performed without agitation and at room temperature. Cells were fixed in 50 μl of a 4% paraformaldehyde (PFA, Alpha aesar, #043368) PBS solution for 15 minutes at room temperature. […] Before analysis samples were washed 2 times manually for 5 minutes in ICC base buffer.
Imaging is performed using Perkin Elmer Phenix Opera using a water 20× objective and recording 9 fields per well. Intensity readout at 488 nm is used as a measure of O-GlcNAcylation level of total proteins in wells. To assess potential toxicity of compounds nuclei were counted using the Hoechst staining. IC50-values are calculated using parametric non-linear regression model fitting. As a maximum inhibition Thiamet G at a 200 uM concentration is present on each plate. In addition, a concentration response of Thiamet G is calculated on each plate.

Emax	SMILES
28%	Cc1cc(O[C@@H]2CCN(C(C)c3nc4nc(C)sc4cc3F)C2)cc(C)n1 (some centres unmarked) [Compound 92]
60%	Cc1cc(OC[C@H]2CCCN(C(C)c3cc4nc(C)sc4cc3F)C2)cc(C)n1 (some centres unmarked) [Compound 98]
32%	Cc1cc(C[C@H]2CCN(C(C)c3cnc4[nH]c(C)nc4c3)C2)cc(C)n1 (some centres unmarked) [Compound 102]

same assay, conditions: HEK293 cells inducible for P301L mutant human Tau, 6 hours incubation; read-out: Cellular hOGA; pEC50 (converted)

EC50	SMILES
39.8 nM	Cc1cc(C[C@@H]2CCN(C(C)c3nc4nc(C)sc4cc3F)C2)cc(C)n1 (single isomer, unassigned) [Compound 93]
> 1000 nM	Cc1cc(C[C@@H]2CCN(C(C)c3nc4nc(C)sc4cc3F)C2)cc(C)n1 (single isomer, unassigned) [Compound 94]
> 1000 nM	Cc1cc(CO[C@H]2CCCN(C(C)c3cc4nc(C)sc4cc3F)C2)cc(C)n1 (single isomer, unassigned) [Compound 100]
50.1 nM	Cc1cc(CO[C@H]2CCCN(C(C)c3cc4nc(C)sc4cc3F)C2)cc(C)n1 (single isomer, unassigned) [Compound 101]
31.6 nM	Cc1cc(C2CCCN(C(C)c3cc4nc(C)sc4cc3F)C2)cc(C)n1 (centres unmarked) [Compound 90]
> 1000 nM	Cc1cc(O[C@@H]2CCN(C(C)c3nc4nc(C)sc4cc3F)C2)cc(C)n1 (some centres unmarked) [Compound 92]
12.6 nM	Cc1cc(OC[C@H]2CCCN(C(C)c3cc4nc(C)sc4cc3F)C2)cc(C)n1 (some centres unmarked) [Compound 98]
> 1000 nM	Cc1cc(C[C@H]2CCN(C(C)c3cnc4[nH]c(C)nc4c3)C2)cc(C)n1 (some centres unmarked) [Compound 102]

same assay, conditions: HEK293 cells inducible for P301L mutant human Tau, maximum = Thiamet G 200 uM

Cellular Emax (%)	SMILES
91%	Cc1cc(C[C@@H]2CCN(C(C)c3nc4nc(C)sc4cc3F)C2)cc(C)n1 (single isomer, unassigned) [Compound 93]
2%	Cc1cc(C[C@@H]2CCN(C(C)c3nc4nc(C)sc4cc3F)C2)cc(C)n1 (single isomer, unassigned) [Compound 94]
−6%	Cc1cc(CO[C@H]2CCCN(C(C)c3cc4nc(C)sc4cc3F)C2)cc(C)n1 (single isomer, unassigned) [Compound 100]
73%	Cc1cc(CO[C@H]2CCCN(C(C)c3cc4nc(C)sc4cc3F)C2)cc(C)n1 (single isomer, unassigned) [Compound 101]
84%	Cc1cc(C2CCCN(C(C)c3cc4nc(C)sc4cc3F)C2)cc(C)n1 (centres unmarked) [Compound 90]

target: T2, recombinant human Meningioma Expressed Antigen 5 (MGEA5), also referred to as O-GlcNAcase (OGA) (Homo sapiens, UniProt O60502); assay: OGA biochemical assay (inhibition of FM-GlcNAc hydrolysis, fluorescence); settings: FM-GlcNAc substrate, 6 h at room temperature
T2 construct: Full length OGA enzyme was purchased at OriGene (cat #TP322411); purchased OriGene TP322411
T2 sequence (O60502 1-916): T1 sequence (O60502 1-916)
Outline: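 Full-length OGA (2 nM) pre-incubated 60 min at room temperature with compound, then FM-GlcNAc (100 uM final) hydrolysed 6 h at room temperature in 200 mM citrate/phosphate pH 7.2 with 0.005% Tween-20. Stopped with carbonate pH 11.0; fluorescein read at ex 485/em 538 nm. IC50 and Hill coefficient from curve fit between no-inhibitor and saturating-standard controls.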

Enzymatic hOGA; pIC50	SMILES
8.2	Cc1cc(C2CCCN(C(C)c3cc4nc(C)sc4cc3F)C2)cc(C)n1 (centres unmarked) [Compound 90]

same assay, conditions: FM-GlcNAc substrate, 6 h at room temperature, read-out: Enzymatic hOGA, pIC50 (converted)

IC50	SMILES
3.16 nM	Cc1cc(C[C@@H]2CCN(C(C)c3nc4nc(C)sc4cc3F)C2)cc(C)n1 (single isomer, unassigned) [Compound 93]
1580 nM	Cc1cc(C[C@@H]2CCN(C(C)c3nc4nc(C)sc4cc3F)C2)cc(C)n1 (single isomer, unassigned) [Compound 94]
1260 nM	Cc1cc(CO[C@H]2CCCN(C(C)c3cc4nc(C)sc4cc3F)C2)cc(C)n1 (single isomer, unassigned) [Compound 100]
3.98 nM	Cc1cc(CO[C@H]2CCCN(C(C)c3cc4nc(C)sc4cc3F)C2)cc(C)n1 (single isomer, unassigned) [Compound 101]
39.8 nM	Cc1cc(O[C@@H]2CCN(C(C)c3nc4nc(C)sc4cc3F)C2)cc(C)n1 (some centres unmarked) [Compound 92]
2.51 nM	Cc1cc(OC[C@H]2CCCN(C(C)c3cc4nc(C)sc4cc3F)C2)cc(C)n1 (some centres unmarked) [Compound 98]
398 nM	Cc1cc(C[C@H]2CCN(C(C)c3cnc4[nH]c(C)nc4c3)C2)cc(C)n1 (some centres unmarked) [Compound 102]

same assay, conditions: FM-GlcNAc substrate, maximal effect

Enzymatic Emax (%)	SMILES
76%	Cc1cc(C[C@@H]2CCN(C(C)c3nc4nc(C)sc4cc3F)C2)cc(C)n1 (single isomer, unassigned) [Compound 94]
98%	Cc1cc(CO[C@H]2CCCN(C(C)c3cc4nc(C)sc4cc3F)C2)cc(C)n1 (single isomer, unassigned) [Compound 101]
101%	Cc1cc(C2CCCN(C(C)c3cc4nc(C)sc4cc3F)C2)cc(C)n1 (centres unmarked) [Compound 90]

same assay, conditions: FM-GlcNAc substrate, maximal effect, read-out: Enzymatic Emax (%)

Emax	SMILES
92%	Cc1cc(C[C@@H]2CCN(C(C)c3nc4nc(C)sc4cc3F)C2)cc(C)n1 (single isomer, unassigned) [Compound 93]
92%	Cc1cc(CO[C@H]2CCCN(C(C)c3cc4nc(C)sc4cc3F)C2)cc(C)n1 (single isomer, unassigned) [Compound 100]
99%	Cc1cc(O[C@@H]2CCN(C(C)c3nc4nc(C)sc4cc3F)C2)cc(C)n1 (some centres unmarked) [Compound 92]
102%	Cc1cc(OC[C@H]2CCCN(C(C)c3cc4nc(C)sc4cc3F)C2)cc(C)n1 (some centres unmarked) [Compound 98]
96%	Cc1cc(C[C@H]2CCN(C(C)c3cnc4[nH]c(C)nc4c3)C2)cc(C)n1 (some centres unmarked) [Compound 102]

Source: patent US20210115040A1, “OGA INHIBITOR COMPOUNDS” (Janssen Pharmaceutica NV, priority 2018, published 2021)
